{"source": "patent US20250325531A1", "about": "“TREATMENT OF SYSTOLIC DYSFUNCTION” (MyoKardia, Inc., priority 2024, published 2025)", "key": {"healthy subjects": {"tested_on": "healthy subjects", "test": "Safety and tolerability (AEs, ECG, hs-troponin I) after single ascending doses in healthy volunteers", "assay_type": "in vivo, human", "procedure": "PK and PD data were collected as described herein. […] Changes from Baseline at each postbaseline timepoint were assessed.\nA 12-lead electrocardiogram (ECG) was obtained after the subjects had rested in a supine position for at least 10 minutes. […] Digital 12-lead ECG evaluations was performed after 10 minutes of rest at Screening, predose on Day 1 (within 2 hours of dosing), and at various predetermined time points. Each time an ECG was completed, a 10-second paper ECG rhythm strip would also be obtained and maintained in the subject's source documentation.\nThe ECGs were transmitted to the core ECG laboratory who read the recordings in a blinded manner. An automated methodology was utilized with manual over-reading by a cardiologist. The following intervals were measured: RR, PR, QRS, and QT. Heart rate (HR) was calculated as 60/(RR×1000) (with RR expressed in msec) and rounded to the nearest integer.\nCorrected QT interval (QTc) was calculated using the manually over-read QT values per the standard procedures of the central ECG laboratory. Each individual ECG QT value was corrected for HR. The measured QT data were corrected for HR using the Fridericia correction QTcF and the Bazzett method (QTcB) as per the following formulae/method (with QT, RR and QTc expressed in msec): […]\nAny abnormal findings judged by the investigator to be clinically important were recorded as adverse events (AEs). AEs were mapped to system organ classes (SOCs) and preferred terms (PTs) using the Medical Dictionary for Regulatory Activities (MedDRA). AEs were monitored during the study and the data analyzed with respect to overall incidence, severity, and potential relationship to study medication. The blinded AEs were presented to the SRC for review after each cohort to aid in their decision on the dose of the subsequent cohort or if the study should be terminated. […] No ECG changes or symptoms were noted.\nFor the final analysis, the AEs were grouped by treatment group with all of the subjects who received placebo pooled as 1 group. AEs with onset on or after the first dose of study medication, or with an onset before the first dose of study medication that increased in severity on or after the first dose of study medication. Treatment-emergent AEs (defined as AEs starting […]) were summarized for the Safety Analysis Population by MedDRA SOC and PT, and by severity and relationship to treatment. Severe and life-threatening AEs, SAEs, and AEs leading to study withdrawal, if any, were presented in data listings.\nSerum samples were drawn for hs-troponin I. Analyses were performed using the Abbott Architect STAT High Sensitivity Troponin I assay."}, "[1]": {"test": "Pharmacokinetics of multiple ascending doses (MAD Cohorts A-D) in patients with stable HFrEF", "assay_type": "in vivo, human", "details": "for Accumulation Index: estimated based λz and Tau", "description": "This was a randomized, parallel-group, DB, placebo-controlled, adaptive design, sequential ascending (oral) multiple-dose study in stable patients with heart failure. Four MAD Cohorts (A, B, C, D) were enrolled (FIG. 5B). An SRC reviewed results from each cohort and determined the dose and confirmed initial sample size for the subsequent cohort. Additionally, the first 3 patients in each cohort had LVEF ≥25%; the SRC reviewed preliminary safety data from these patients and decided whether to open cohort enrollment to patients with LVEF <25%.\nAfter Screening and qualification, patients were confined to a clinical testing facility from Day 1 (Check-in) to Day 11. Each patient initially received placebo BID for 2 days (Days 1 and 2) in single-blinded manner (“run-in” during acclimatization to confinement in the Clinical Testing Unit) prior to receiving the randomized DB study drug treatment on Day 3. All patients then received either placebo or active Compound I for 7 days (Days 3 through 9), with a follow-up period with patients discharged from the unit on Day 11. A final follow-up clinic visit was conducted on Day 16. More than one patient could be dosed in a cohort at the same time or during the same week depending on administrative issues, i.e., capacity and scheduling.\nPatients were dosed twice daily (every 12 hours). Doses could occur ±2 hours from scheduled dosing times as long as doses were separated by at least 10 hours and by no more than 14 hours. The exception to the twice daily dosing was on Day 9 (last dose of randomized DB study drug treatment). On Day 9, a single morning dose was administered.\nDuring the study, multiple evaluations were performed that included: serial TTE assessments (11-14 TTEs per patient on Days 1, 2, 3, 4, 7, 9, 10 and 11); PK sampling (PK sample collected concomitantly with every post-randomization echocardiogram); ECGs (on Days 2, 3, 4, 7, 9, 10, 11 and 16); troponin (collected concomitantly with every post-randomization ECG); and safety laboratory assessments. Confined patients underwent continuous telemetry. Holter monitoring was performed in all patients at baseline (Days 1-2) and at the end of double-blind treatment (Days 7-9). Vital signs were collected daily.\nStudy medication consisted of Compound I 5 mg tablets, 25 mg tablets, 100 mg tablets, or matching placebo tablets. In Part 1 (SAD), Compound I or placebo was administered after an overnight fast (at least 6 hours), while in Part 2 (MAD), Compound I was administered after a 2 hour fast (Cohort A) or with food (Cohorts B, C, and D). The dose was ingested with a minimum of 240 mL of water, but more water was ingested as needed. The entire dose was administered over a period of up to 15 minutes. The time of dose used to determine future assessments was the time the last tablet was taken. In the cohorts for Part 2 (MAD), a BID regimen was used.\nIn Part 2 (MAD), Cohort A patients fasted for 2 hours before and 2 hours after dosing. For example, if morning dosing occurred at 8 AM, patients could have a snack at 6 AM and a full breakfast at 10 AM. If afternoon dosing occurred at 8 PM, patients could have dinner at 6 PM and a snack at 10 PM. […] Cohort B, C, and D patients ingested food with each dose.\nA total of 40 subjects across 4 cohorts received 7 days of treatment with placebo or Compound I at doses of 50 mg (with food), 75 mg (1 cohort with food, 1 cohort with […]), or 100 mg (with food), BID (see FIG. 5B and Table 14)."}, "[2]": {"details": "MAD Cohort A (75 mg BID, 4 h fasting), individual subjects"}, "[3]": {"details": "MAD Cohort B (50 mg BID, with food), Mean"}, "[4]": {"details": "MAD Cohort C (75 mg BID, with food), individual subjects"}}, "note": "Several values for one entry are separate records, joined by “and”; a condition that tells them apart may be missing. Identical values can stand only once.", "data": [{"molecule": "Cn1cc(S(=O)(=O)[C@@](C)(F)C2CCN(C(=O)Nc3ccon3)CC2)c(C(F)F)n1", "note": "[Compound I, (R)-4-(1-((3-(difluoromethyl)-1-methyl-1H-pyrazol-4-yl)sulfonyl)-1-fluoroethyl)-N-(isoxazol-3-yl) piperidine-1-carboxamide]", "values": [{"measurement": "subjects with AEs related to treatment", "setting": "healthy subjects; 50 mg (50.0%)", "result": 3, "unit": "subjects"}, {"measurement": "serious AE, one subject", "setting": "healthy subjects; 100 mg, 16-22 hours postdosing", "result": "short duration of complete AV block"}, {"measurement": "subjects with AEs related to treatment", "setting": "healthy subjects; 350 mg (50.0%)", "result": 3, "unit": "subjects"}, {"measurement": "hs-troponin I concentration, one subject", "setting": "healthy subjects; 525 mg, 6 hours postdose, upper limit of normal 15", "result": 16, "unit": "ng/L"}, {"measurement": "Steady-state (Day 9) post-dose maximum concentration", "setting": "[1]; Cohort A + C (n = 14), 75 mg BID", "result": "3862 (27.7%) ng/mL"}, {"measurement": "Steady-state (Day 9) post-dose maximum concentration", "setting": "[1]; Cohort B (n = 8), 50 mg BID", "result": "2735 (17.5%) ng/mL"}, {"measurement": "Steady-state (Day 9) post-dose maximum concentration", "setting": "[1]; Cohort D (n = 6), 100 mg BID", "result": "5560 (22.8%) ng/mL"}, {"measurement": "Accumulation Index", "setting": "[1]; MAD Cohort A (75 mg BID, 4 h fasting), Mean", "result": 3.11}, {"measurement": "AUCtau, Day 1", "setting": "[1]; [2]", "result": 10610, "unit": "ng·h/mL"}, {"measurement": "Accumulation Index", "setting": "[1]; [2]", "result": "3.82 and 3.89 and 2.79* and 2.21 and 3.00 and 2.61"}, {"measurement": "Cmax, SS", "setting": "[1]; [3]", "result": 2771, "unit": "ng/mL"}, {"measurement": "Accumulation Index", "setting": "[1]; [3]", "result": 3.55}, {"measurement": "Accumulation Index", "setting": "[1]; MAD Cohort B (50 mg BID, with food), individual subjects", "result": "3.63 and 5.03 and 4.46 and 2.93 and 3.51 and 2.42 and 3.20 (2×) and 4.23*"}, {"measurement": "Accumulation Index", "setting": "[1]; MAD Cohort C (75 mg BID, with food), Mean", "result": 3.18}, {"measurement": "AUCtau, Day 1", "setting": "[1]; [4]", "result": 10560, "unit": "ng·h/mL"}, {"measurement": "Accumulation Index", "setting": "[1]; [4]", "result": "2.18 and 2.39 and 2.99 and 3.31 and 5.51 and 2.43 and 2.20 and 4.17 and 3.42"}, {"measurement": "Accumulation Index", "setting": "[1]; MAD Cohort D (100 mg BID, with food), Mean", "result": 3.30}, {"measurement": "Accumulation Index", "setting": "[1]; MAD Cohort D (100 mg BID, with food), individual subjects", "result": "3.46 and 3.77 and 3.06 and 3.31 and 2.61 and 3.62"}]}]}
